Target: Full length KDM2B (Homo sapiens (Human), UniProt Q8NHM5)
Assay: KDM2B TR-FRET Assay for Determining Inhibitor IC50
Format: biochemical
Conditions: TR-FRET (HTRF), biotin-H3K36me2 peptide substrate
Text: KDM2B TR-FRET Assay for Determining Inhibitor IC50
The KDM2B TR-FRET Assay described above represents an additional embodiment of the invention.

Chain of Full length KDM2B (Q8NHM5 whole entry): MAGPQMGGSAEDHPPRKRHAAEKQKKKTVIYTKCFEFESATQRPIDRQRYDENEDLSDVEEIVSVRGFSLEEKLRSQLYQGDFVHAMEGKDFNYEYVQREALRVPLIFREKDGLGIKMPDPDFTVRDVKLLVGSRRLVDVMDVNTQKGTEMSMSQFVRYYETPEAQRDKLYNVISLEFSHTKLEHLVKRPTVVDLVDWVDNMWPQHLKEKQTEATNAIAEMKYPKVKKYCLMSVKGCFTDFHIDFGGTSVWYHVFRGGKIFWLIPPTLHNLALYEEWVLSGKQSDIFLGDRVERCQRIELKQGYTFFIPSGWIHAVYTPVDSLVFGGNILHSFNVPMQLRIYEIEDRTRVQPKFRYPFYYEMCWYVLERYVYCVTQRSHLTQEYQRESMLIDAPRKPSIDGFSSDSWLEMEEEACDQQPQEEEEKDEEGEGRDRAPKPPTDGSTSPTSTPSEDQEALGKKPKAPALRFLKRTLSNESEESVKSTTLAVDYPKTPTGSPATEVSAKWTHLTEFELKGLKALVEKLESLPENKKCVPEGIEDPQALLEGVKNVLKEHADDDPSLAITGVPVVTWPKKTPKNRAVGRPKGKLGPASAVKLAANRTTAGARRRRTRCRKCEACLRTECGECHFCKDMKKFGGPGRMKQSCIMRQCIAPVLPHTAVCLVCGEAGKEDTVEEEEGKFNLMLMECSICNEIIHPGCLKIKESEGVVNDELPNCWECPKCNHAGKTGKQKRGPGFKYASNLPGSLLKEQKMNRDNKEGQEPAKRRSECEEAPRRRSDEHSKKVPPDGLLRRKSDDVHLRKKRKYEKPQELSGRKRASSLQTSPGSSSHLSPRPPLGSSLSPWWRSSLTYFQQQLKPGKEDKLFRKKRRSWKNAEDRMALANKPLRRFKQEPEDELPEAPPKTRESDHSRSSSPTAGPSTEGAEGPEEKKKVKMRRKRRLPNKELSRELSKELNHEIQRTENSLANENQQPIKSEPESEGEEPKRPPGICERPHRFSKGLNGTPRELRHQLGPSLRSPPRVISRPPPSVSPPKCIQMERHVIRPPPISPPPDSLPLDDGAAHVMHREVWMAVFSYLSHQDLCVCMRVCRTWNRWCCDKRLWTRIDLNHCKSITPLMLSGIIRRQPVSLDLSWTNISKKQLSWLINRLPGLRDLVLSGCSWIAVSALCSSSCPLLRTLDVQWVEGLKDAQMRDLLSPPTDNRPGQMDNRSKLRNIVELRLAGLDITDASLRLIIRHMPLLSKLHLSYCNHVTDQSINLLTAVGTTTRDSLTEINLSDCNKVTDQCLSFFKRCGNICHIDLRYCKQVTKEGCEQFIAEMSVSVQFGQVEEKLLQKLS

SMILES	IC50
CCN1CCN(C2=NCCN2S(=O)(=O)c2ccc(OC)cc2)CC1 [Example 116, 1-ethyl-4-[1-(4-methoxyphenyl)sulfonyl-4,5-dihydroimidazol-2-yl]piperazine]	5.45 nM
CCN1CCN(C2=NCCN2S(=O)(=O)c2ccc(C)cc2)CC1 [Example 117, 1-ethyl-4-[1-(p-tolylsulfonyl)-4,5-dihydroimidazol-2-yl]piperazine]	3.76 nM
CCN1CCN(C2=NCCN2S(=O)(=O)c2ccccc2OC)CC1 [Example 111, 1-ethyl-4-[1-(2-methoxyphenyl)sulfonyl-4,5-dihydroimidazol-2-yl]piperazine]	13.3 nM
COc1cccc(-c2ccc(S(=O)(=O)N3CCN=C3N3CCN(C4CCC4)CC3)cc2)c1 [Example 2, 1-cyclobutyl-4-[1-[4-(3-methoxyphenyl)phenyl]sulfonyl-4,5-dihydroimidazol-2-yl]piperazine]	0.098 nM
O=S(=O)(c1ccc(-c2ccc(Cl)cc2)cc1)N1CCN=C1N1CCN(C2CCC2)CC1 [Example 23, 1-[1-[4-(4-chlorophenyl)phenyl]sulfonyl-4,5-dihydroimidazol-2-yl]-4-cyclobutyl-piperazine]	0.275 nM
O=S(=O)(c1ccc(-c2ccccc2C(F)(F)F)cc1)N1CCN=C1N1CCN(C2CCC2)CC1 [Example 4, 1-cyclobutyl-4-[1-[4-[2-(trifluoromethyl)phenyl]phenyl]sulfonyl-4,5-dihydroimidazol-2-yl]piperazine]	0.102 nM

Reference: patent US10202354B2, “Therapeutic compounds and uses thereof” (GENENTECH, INC., priority 2015, dated 2019)
